Reference: US20190008870A1, “COMPOSITIONS AND METHODS FOR LIPID METABOLISM DISORDER” (JANSFAT BIOTECHNOLOGY CO., LTD., priority 2016, published 2019)
One block for each compound: values may come before it.

Experiments:
ABCA1 = assay: HFD-induced ABCA1 expression in liver; format: in vivo, mice
PKA = PKA expression/immunoreactivity in HepG2 cells; format: cell-based
Description: (§1) HepG2 cells were treated with various concentrations of targeted drugs for 24 hours. Reactions were terminated by washing twice with cold PBS, and the cells were then harvested. Proteins in the whole-cell lysate were homogenized in an ice-cold lysis buffer and a protease inhibitor (Sigma-Aldrich, St. Louis, Mo., U.S.A.). The homogenate was centrifuged at 90,000×g for 15 minutes at 4° C., and supernatant was recovered as the total cellular protein. Cytosolic and membrane fractions of HepG2 cells were prepared using a CNM (Cytosol Nuclear Membrane) compartmental protein extraction kit (BioChain Institute Inc., Hayward, Calif., U.S.A.) according to the manufacturer's instructions. All of the fractionated protein solutions were stored at −80° C. until analysis. To measure the expression levels of proteins by drugs, the total cell protein was extracted after incubation with treatments for 24 hours and then Western blotting analysis was performed as described previously.
(§2) To determine that KMUP-1 or targeted drugs can affect PKA, we incubated KMUP-1 (10^−4, 10^−5, 10^−6 M) or targeted drugs with HepG2 cells for 24 hours to measure the protein expressions of PKA/PKG by Western blotting or PKA/PKG and HSL immunoreactivities by fluorescence staining, combined with image scanning in the absence or presence of oxidized LDL (200 μg/mL).

epididymal fat pads = assay: Epididymal fat pad weight and diameter in HFD mice; format: in vivo
Description: Mice liver and epididymal fat pads were cut and soaked in formalin, dehydrated through graded alcohols and embedded in paraffin. Specimens of liver tissues and epididymal fat pads fixed with formalin (4%) were embedded in paraffin for one hour at 4° C., cut into 4-μm-thick sections, and subjected to H&E staining before examination by light microscope.

ROCK II = assay: HFD-induced ROCK II expression in liver; format: in vivo, mice; settings: for ROCK II: HFD mice, CTL 100
Description: (§3) In the experiment, C57BL/6J male mice (21-22 g), after fasting, were fed an HFD as a model of hyperlipidemia for 8 weeks. During the 2 month experiments, mice fasted for one night before the experiment was changed from a standard diet (STD) to an HFD and then the mice were randomly divided into 13 groups, including a protection group, 2 control and 10 treatment groups. Six mice were used in each group. […] Liver from the protection group supplemented with KMUP-1 HCl (1 mg/kg/day) were used to determine the HMG CoA reductase expression. Each group of mice had free access to drinking water from week 1 to week 14. Tap water was used to normalize mineral nutrition.
(§4) For the expression of SR-B1, HMGR, PPARγ and ROCK II, isolated liver tissues were cut into small chips and placed into an extraction buffer (Tris 10 mM, pH 7.0, NaCl 140 mM, PMSF 2 mM, DTT 5 mM, NP-40 0.5%, pepstatin A 0.05 mM and leupeptin 0.2 mM) for hepatic protein extraction, and centrifuged at 20,000×g for 30 minutes. The obtained protein extract was boiled to a ratio of 4:1 with a sample buffer (Tris 100 mM, pH 6.8, glycerol 20%, SDS 4% and bromophenol blue 0.2%). Electrophoresis was performed using 10% SDS-polyacrylamide gel (1 hour, 100 V, 40 mA, 20 μg protein per lane).
(§5) Separated proteins, after 3 repeated centrifugations to discard up-layer tissue lipid in purity, were transferred to PVDF membranes treated with 5% fat-free milk powder to block the nonspecific IgGs (90 minutes, 100 V) and incubated for 1 hour with specific protein antibody. The blot was then incubated with anti-mouse or anti-goat IgG linked to alkaline phosphatase (1:1000) for 1 hour.

HMG CoA reductase = HMG CoA reductase expression in HepG2 cells (Western blotting); format: cell-based; settings: for HMGR (%): 24 hours, CTL 100; for HMG CoA expression: Mevalonate (100 μM) + drug (10^−5 M), Control 100
Description: The HepG2 hepatoma cell line was purchased from the American Type Culture Collection (ATCC, Manassas, Va., U.S.A.). Cells were cultured in Dulbecco's Modified Eagle's Medium (DMEM). The culture media was supplemented with 5% heat-inactivated FBS, penicillin (100 U/mL) and streptomycin (100 μg/mL). Cells were grown in a humidified atmosphere containing 5% CO2 at 37° C., in which the oxygen tension in the incubator was held at 140 mmHg (20% O2, v/v; normoxic conditions). […] Then the targeted drugs solution was incubated with the cells for 24 hours, followed by protein extraction. The targeted drugs were added to the […].
as §1

[1] = target: T1, Human recombinant HMG CoA reductase (Homo sapiens, UniProt P04035); assay: HMG CoA reductase activity and [14C]mevalonate formation; format: biochemical
T1 construct: purchased Sigma-Aldrich H7039; host or cells: E. coli
Description: Human recombinant HMG CoA reductase expressed in E. coli (H7039, Sigma-Aldrich, MO, U.S.A.) was used. Human recombinant HMG-CoA reductase, examined by SDS-PAGE to be ≥90% in purity, 2-8 units/mg protein in activity and ˜76 kDa in molecular weight (H7039, Sigma-Aldrich, St. Louis, Mo. U.S.A.), was used for determining the formation of [^14C]mevalonate. KMUP-1 and targeted drugs were pre-incubated with 35 ng/ml enzyme in phosphate buffer pH 7.5 for 15 minutes at 37° C. The reaction was initiated by the addition of 2.5 μM [^14C]HMG-CoA for another 20 minutes incubation period and terminated by further addition of 1 N HCl. An aliquot was removed by column and counted to determine the amount of [^14C]mevalonate formed (Ricera® Co. Ltd., Taipei, Taiwan).

PPARγ = assay: HFD-induced PPARγ expression in liver; format: in vivo, mice
Description: as §3, §4, §5

PDE-5A = assay: Expression of PDE-5A (Table 12); settings: Control group 100 (%)
PKG = PKG expression/immunoreactivity in HepG2 cells; format: cell-based
Description: as §1, §2

[2] = HepG2 cells, 10, 20, 40 μM, in the presence of LDL (500 μg/mL)
[3] = Simva 5 mg/kg, CTL 100 (Table 9)

T1 sequence (P04035 426-888 limits assumed): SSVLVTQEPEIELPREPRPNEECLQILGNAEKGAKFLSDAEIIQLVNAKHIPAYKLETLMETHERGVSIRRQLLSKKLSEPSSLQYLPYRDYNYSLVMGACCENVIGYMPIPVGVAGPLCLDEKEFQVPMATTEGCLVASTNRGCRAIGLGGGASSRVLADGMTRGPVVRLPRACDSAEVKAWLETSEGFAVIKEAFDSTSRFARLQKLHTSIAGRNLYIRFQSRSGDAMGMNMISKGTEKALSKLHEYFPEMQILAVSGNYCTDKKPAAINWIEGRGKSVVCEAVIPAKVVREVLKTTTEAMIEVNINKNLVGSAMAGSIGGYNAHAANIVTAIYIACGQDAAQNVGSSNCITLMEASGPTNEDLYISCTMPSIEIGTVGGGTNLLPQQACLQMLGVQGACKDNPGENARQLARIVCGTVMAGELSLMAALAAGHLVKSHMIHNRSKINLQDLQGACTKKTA

SMILES: Cn1c(=O)c2c(ncn2CCN2CCN(c3ccccc3Cl)CC2)n(C)c1=O [KMUP-1, 7-[2-[4-(2-chlorophenyl)piperazinyl]ethyl]-1,3-dimethylxanthine]
ABCA1 (ABCA1; HFD mice, 1 mg/kg, CTL 100): 98%
ABCA1 (ABCA1; HFD mice, 2.5 mg/kg, CTL 100): 190%
ABCA1 (ABCA1; HFD mice, 5 mg/kg, CTL 100): 200%
oxLDL-induced reduction of PKA expression (PKA; HepG2 cells, 1, 10, 100 μM, 200 μg/mL oxLDL): reversed
PKA protein expression (PKA; [2]): could not significantly affect
PKA immunoreactivity (green fluorescence) (PKA; HepG2 cells, 24 hours): increased
Fat pads diameter (epididymal fat pads; HFD mice 14 weeks, KMUP-1 2.5 mg/kg/day, Control 46): 28 μm
Weight of fat pads (R) (epididymal fat pads; HFD mice, KMUP-1 2.5 mg/kg/day for 14 weeks, Control 165): 120 mg
Weight of fat pads (L) (epididymal fat pads; HFD mice, KMUP-1 2.5 mg/kg/day for 14 weeks, Control 170): 96 mg
ROCK II (ROCK II; 1 mg/kg): 30%
ROCK II (ROCK II; 2.5 mg/kg): 25%
ROCK II (ROCK II; 5 mg/kg): 10%
HMGR (%) (HMG CoA reductase; 10^−5 M): 270%
HMGR (%) (HMG CoA reductase; 10^−6 M): 220%
HMGR (%) (HMG CoA reductase; 10^−7 M): 210%
HMGR (%) (HMG CoA reductase; 10^−8 M): 125%
HMGR (%) (HMG CoA reductase; 10^−9 M): 120%
HMG CoA expression (HMG CoA reductase): 62%
[14C]mevalonate formation ([1]; 10 μM): could not reduce
PPARγ (PPARγ; HFD mice, 1 mg/kg, CTL 100): 53%
PPARγ (PPARγ; HFD mice, 2.5 mg/kg, CTL 100): 249%
PPARγ (PPARγ; HFD mice, 5 mg/kg, CTL 100): 245%
PDE-5A expression (PDE-5A): 64.5 ± 4.5%
PKG immunoreactivity (PKG; HepG2 cells (data not shown)): not significantly affected
expression of PKG (PKG; [2]): increased

inhibition of [14C]mevalonate formation ([1]; compared to the vehicle group): 86.6±4.2%
SMILES: CCC(C)(C)C(=O)O[C@H]1C[C@@H](C)C=C2C=C[C@H](C)[C@H](CC[C@@H]3C[C@@H](O)CC(=O)O3)[C@H]21 [Simva, Simvastatin, reference compound]
ABCA1 (ABCA1; [3]): 100%
ROCKII (ROCK II; [3]): 43%
HMGR (%) (HMG CoA reductase; 10^−5 M): 280%
HMGR (%) (HMG CoA reductase; 10^−8 M): 152%
HMGR (%) (HMG CoA reductase; 10^−9 M): 150%
HMG CoA expression (HMG CoA reductase): 50%
PPARγ (PPARγ; [3]): 280%
